# Experimental data from US10988477B2 (Merck Patent GmbH, priority 2018, dated 2021).
# Target: GCN2 kinase (Homo sapiens, UniProt Q9P2K8)
# Test: GCN2 enzyme inhibition assay (Transcreener ADP2 fluorescence polarization)
# Type: biochemical
# Conditions: Enzyme activity for compounds of Formula IV; Ki(app), 280 μM ATP, 25° C.
# Outline: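 Kinase activity is followed as ADP formation, measured by fluorescence polarization, using 4 nM enzyme with 280 μM ATP and 200 μM (RS)7 peptide at pH 7.5 and 25 °C for 1 h. Values come from a non-linear tight-binding fit.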
# GCN2 kinase, sequence (Q9P2K8 whole entry): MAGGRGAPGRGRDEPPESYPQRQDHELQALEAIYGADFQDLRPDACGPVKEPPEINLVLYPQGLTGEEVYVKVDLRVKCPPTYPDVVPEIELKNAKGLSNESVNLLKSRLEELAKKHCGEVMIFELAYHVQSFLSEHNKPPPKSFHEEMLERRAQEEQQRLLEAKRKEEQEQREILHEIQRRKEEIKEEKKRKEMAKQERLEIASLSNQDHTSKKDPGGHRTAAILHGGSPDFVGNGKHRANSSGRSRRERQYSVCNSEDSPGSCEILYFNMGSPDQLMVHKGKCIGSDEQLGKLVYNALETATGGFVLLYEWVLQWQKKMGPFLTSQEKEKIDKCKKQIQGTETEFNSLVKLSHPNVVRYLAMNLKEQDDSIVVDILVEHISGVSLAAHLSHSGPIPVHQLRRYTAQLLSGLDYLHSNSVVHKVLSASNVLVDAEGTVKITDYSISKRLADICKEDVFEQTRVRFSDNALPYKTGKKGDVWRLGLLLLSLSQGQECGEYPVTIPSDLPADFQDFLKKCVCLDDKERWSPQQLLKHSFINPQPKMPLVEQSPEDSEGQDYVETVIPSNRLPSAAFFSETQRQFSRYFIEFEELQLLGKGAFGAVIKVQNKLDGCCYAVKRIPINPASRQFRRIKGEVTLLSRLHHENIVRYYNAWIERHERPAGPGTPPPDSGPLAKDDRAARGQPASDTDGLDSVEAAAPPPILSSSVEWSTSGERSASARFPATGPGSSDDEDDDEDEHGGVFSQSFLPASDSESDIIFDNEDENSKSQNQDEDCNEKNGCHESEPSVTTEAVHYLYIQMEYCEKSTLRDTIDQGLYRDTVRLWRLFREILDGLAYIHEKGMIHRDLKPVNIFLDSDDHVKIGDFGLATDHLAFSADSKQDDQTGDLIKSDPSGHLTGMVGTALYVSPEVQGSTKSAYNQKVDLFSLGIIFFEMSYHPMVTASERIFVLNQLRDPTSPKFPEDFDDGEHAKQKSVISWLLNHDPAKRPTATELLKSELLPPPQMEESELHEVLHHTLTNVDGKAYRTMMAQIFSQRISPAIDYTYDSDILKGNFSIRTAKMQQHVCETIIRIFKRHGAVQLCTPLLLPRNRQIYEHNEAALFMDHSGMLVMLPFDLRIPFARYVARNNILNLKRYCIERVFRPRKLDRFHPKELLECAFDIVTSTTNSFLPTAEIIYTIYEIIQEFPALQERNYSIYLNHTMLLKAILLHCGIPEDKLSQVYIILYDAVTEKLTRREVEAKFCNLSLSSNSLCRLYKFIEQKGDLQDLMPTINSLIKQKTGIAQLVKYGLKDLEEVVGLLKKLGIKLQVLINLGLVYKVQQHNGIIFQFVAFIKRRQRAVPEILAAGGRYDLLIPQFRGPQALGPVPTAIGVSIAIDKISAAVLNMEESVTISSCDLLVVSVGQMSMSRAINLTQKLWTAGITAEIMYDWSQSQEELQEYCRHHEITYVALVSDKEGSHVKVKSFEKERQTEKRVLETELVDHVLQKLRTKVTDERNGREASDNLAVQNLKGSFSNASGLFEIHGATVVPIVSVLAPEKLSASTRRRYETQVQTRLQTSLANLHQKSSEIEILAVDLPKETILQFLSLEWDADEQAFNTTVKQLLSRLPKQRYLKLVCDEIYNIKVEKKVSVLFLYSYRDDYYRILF
row,Ki [nM],SMILES
1,100 to 1000,"CC(=O)N1CCN(c2ccnc(-c3cnc4cnc(-c5ccccc5)cn34)n2)CC1 [IV-297, 1-(4-(2-(6-Phenylimidazo[1,2-a]pyrazin-3-yl)pyrimidin-4-yl)piperazin-1-yl)ethan-1-one]"
2,100 to 1000,"[O-][S+]1CCN(c2ccnc(-c3cnc4cnc(C(F)F)cn34)n2)CC1 [IV-80, 4-(2-(6-(Difluoromethyl)imidazo[1,2-a]pyrazin-3-yl)pyrimidin-4-yl)thiomorpholine 1-oxide]"
3,100 to 1000,"CN1CCN(c2ccnc(-c3cnc4cnc(C(N)=O)cn34)n2)CC1 [IV-239, 3-(4-(4-Methylpiperazin-1-yl)pyrimidin-2-yl)imidazo[1,2-a]pyrazine-6-carboxamide]"
4,100 to 1000,"CC(=O)NC1CCN(c2ccnc(-c3cnc4cnc(C(F)(F)F)cn34)n2)C1 (stereo not shown) [IV-528, N-(1-(2-(6-(Trifluoromethyl)imidazo[1,2-a]pyrazin-3-yl)pyrimidin-4-yl)pyrrolidin-3-yl)acetamide]"
5,100 to 1000,"FC(F)(F)c1cn2c(-c3nccc(N4CCCC(n5ccnn5)C4)n3)cnc2cn1 (stereo not shown) [IV-600, 3-(4-(3-(1H-1,2,3-Triazol-1-yl)piperidin-1-yl)pyrimidin-2-yl)-6-(trifluoromethyl)imidazo[1,2-a]pyrazine]"
6,> 1000,O=C(N[C@H]1CCCN(c2ccnc(-c3cnc4cnc(C(F)(F)F)cn34)n2)C1)c1ccc(F)c(F)c1 [IV-746]
7,< 10,"C[C@H]1[C@@H](C(N)=O)CCCN1c1ccnc(-c2cnc3cnc(C(F)(F)F)cn23)n1 (racemic) [IV-453, Cis-2-Methyl-1-(2-(6-(trifluoromethyl)imidazo[1,2-a]pyrazin-3-yl)pyrimidin-4-yl)piperidine-3-carboxamide]"
8,100 to 1000,FC(F)(F)c1cn2c(-c3nccc(N4CCOC(c5cccnc5)C4)n3)cnc2cn1 (stereo not shown) [IV-711]
9,100 to 1000,"OCC1CCN(c2ccnc(-c3cnc4cnc(C(F)(F)F)cn34)n2)C1 (stereo not shown) [IV-434, (1-(2-(6-(Trifluoromethyl)imidazo[1,2-a]pyrazin-3-yl)pyrimidin-4-yl)pyrrolidin-3-yl)methanol]"
10,10 to 100,"CC1CCCCN1c1ccnc(-c2cnc3cnc(C(F)(F)F)cn23)n1 (stereo not shown) [IV-518, 3-(4-(2-Methylpiperidin-1-yl)pyrimidin-2-yl)-6-(trifluoromethyl)imidazo[1,2-a]pyrazine]"
11,100 to 1000,"O=C1NCCN1C1CCCN(c2ccnc(-c3cnc4cnc(C(F)(F)F)cn34)n2)C1 (stereo not shown) [IV-584, 1-(1-(2-(6-(Trifluoromethyl)imidazo[1,2-a]pyrazin-3-yl)pyrimidin-4-yl)piperidin-3-yl)imidazolidin-2-one]"

# Same assay, conditions: compounds of Formula II; 280 μM ATP, 4 nM GCN2 kinase
row,Ki [nM],SMILES
1,10 to 1000,"CS(=O)(=O)NC1CN(c2cc(-c3cnc4ccc(C(F)F)nn34)ncn2)CCC1(F)F (stereo not shown) [II-596, N-(1-(6-(6-(Difluoromethyl)imidazo[1,2-b]pyridazin-3-yl)pyrimidin-4-yl)-4,4-difluoropiperidin-3-yl)methanesulfonamide]"
2,< 10,"CC1C(N=S(C)(C)=O)CCCN1c1cc(-c2cnc3ccc(C(F)F)nn23)ncn1 (stereo not shown) [II-578, ((1-(6-(6-(Difluoromethyl)imidazo[1,2-b]pyridazin-3-yl)pyrimidin-4-yl)-2-methylpiperidin-3-yl)imino)dimethyl-λ^6-sulfanone]"
3,10 to 1000,"CC1C(CCO)N(C)CCN1c1cc(-c2cnc3ccc(C(F)F)nn23)ncn1 (stereo not shown) [II-536, 2-(4-(6-(6-(Difluoromethyl)imidazo[1,2-b]pyridazin-3-yl)pyrimidin-4-yl)-1,3-dimethylpiperazin-2-yl)ethan-1-ol]"
4,> 1000,"CC(=O)N1CCN(c2cc(-c3cnc4ccc(C(=O)O)nn34)ccn2)CC1 [II-734, 3-(2-(4-acetylpiperazin-1-yl)pyridin-4-yl)imidazo[1,2-b]pyridazine-6-carboxylic acid]"
5,10 to 1000,"CS(=N)(=O)CC1CCCN(c2cc(-c3cnc4ccc(C(F)F)nn34)ncn2)C1 (single isomer, unassigned) [II-636, ((1-(6-(6-(Difluoromethyl)imidazo[1,2-b]pyridazin-3-yl)pyrimidin-4-yl)piperidin-3-yl)methyl)(imino)(methyl)-λ^6-sulfanone]"
